# Patent US20260015350A1, “AZAQUINAZOLINE PAN-KRAS INHIBITORS” (Mirati Therapeutics, Inc., priority 2022, published 2026)
# Key:
# KRas^G12D = target: T1, KRas^G12D (Homo sapiens, UniProt P01116, G12D); assay: KRas binding assay (TR-FRET tracer displacement), KRas G12D
# T1 construct: Biotinylated KRas (corresponding to amino acids 1-169, produced at Accelegan Inc.); biotin (biotinylated); purchased Accelegan Inc
# KRas^G12R = target: T2, KRas^G12R (Homo sapiens, UniProt P01116, G12R); assay: KRas binding assay (TR-FRET tracer displacement), KRas G12R
# T2 construct: Biotinylated KRas (corresponding to amino acids 1-169, produced at Accelegan Inc.); biotin (biotinylated); purchased Accelegan Inc
# KRas^G12V = target: T3, KRas^G12V (Homo sapiens, UniProt P01116, G12V); assay: KRas binding assay (TR-FRET tracer displacement), KRas G12V
# T3 construct: Biotinylated KRas (corresponding to amino acids 1-169, produced at Accelegan Inc.); biotin (biotinylated); purchased Accelegan Inc
# [1] = tested on: KRas-mediated phosphorylation of ERK in MKN1 cells; assay: Inhibition of KRas-mediated phosphorylation of ERK (Cisbio HTRF pERK), MKN1 cells; assay type: cell-based; conditions: Homo sapiens, MKN-1
# Protocol: (§1) Inhibition of KRas Phosphorylation of ERK (HTRF) by Exemplary Compounds of Formula (I)
# (§2) Cisbio HTRF Advanced PERK Assay Catalog #64AERPEH
# (§3) Day 1: Seed 6,000 cells/well-25 μl/well in 384-well white solid bottom plate; RPM1_10% FBS. Incubate overnight at 37° C./5% CO2.
# (§4) Incubate for 4 hours at room temperature covered.
# (§5) Read HTRF using ClarioStar
# [2] = tested on: KRas-mediated phosphorylation of ERK in PSN1 cells; assay: Inhibition of KRas-mediated phosphorylation of ERK (Cisbio HTRF pERK), PSN1 cells; assay type: cell-based; conditions: Homo sapiens
# Protocol: as §1, §2, §3, §4, §5
# [3] = tested on: KRas-mediated phosphorylation of ERK in AsPC-1 cells; assay: Inhibition of KRas-mediated phosphorylation of ERK (Cisbio HTRF pERK), AsPC-1 cells; assay type: cell-based; conditions: Homo sapiens, ASPC1, AsPC-1 cells; HTRF pERK
# Procedure, shortened: (§6)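 Min control wells contained 0.2 uM Trametinib, while test compounds ran as 10 doses (3-fold, top 10 uM; 0.8% DMSO final) on cells for 3 hrs. After 40 mins lysis at 4° C, lysates were probed with HTRF antibodies for 2 hrs at room temperature.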
# [4] = tested on: KRas-mediated phosphorylation of ERK in H727 cells; assay: Inhibition of KRas-mediated phosphorylation of ERK (Cisbio HTRF pERK), H727 cells; assay type: cell-based; conditions: Homo sapiens, NCI-H727, H727 cells; HTRF pERK
# Procedure, shortened: as §6
# T1 sequence (P01116 1-169 isoform P01116-2 G12D): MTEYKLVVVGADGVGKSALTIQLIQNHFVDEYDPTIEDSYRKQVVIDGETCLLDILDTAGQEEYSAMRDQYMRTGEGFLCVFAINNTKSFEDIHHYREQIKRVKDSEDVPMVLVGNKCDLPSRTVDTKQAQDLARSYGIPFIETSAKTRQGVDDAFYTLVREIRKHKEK
# T2 sequence (P01116 1-169 isoform P01116-2 G12R): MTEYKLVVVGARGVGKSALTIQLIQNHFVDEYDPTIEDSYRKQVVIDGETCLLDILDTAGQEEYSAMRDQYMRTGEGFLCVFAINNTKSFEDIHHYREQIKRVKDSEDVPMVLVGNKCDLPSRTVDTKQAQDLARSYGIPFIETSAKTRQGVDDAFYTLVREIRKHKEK
# T3 sequence (P01116 1-169 isoform P01116-2 G12V): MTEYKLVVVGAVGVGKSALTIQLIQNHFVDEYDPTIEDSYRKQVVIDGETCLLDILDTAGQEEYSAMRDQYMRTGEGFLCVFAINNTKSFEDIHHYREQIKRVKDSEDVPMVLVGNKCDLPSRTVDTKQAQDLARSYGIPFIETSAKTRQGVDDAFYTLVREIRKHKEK
Structure (SMILES),IC50 (KRas^G12D) [nM],IC50 (KRas^G12R) [nM],IC50 (KRas^G12V) [nM],IC50 [1] [nM],IC50 [2] [nM],IC50 [3] [nM],IC50 [4] [nM]
"CCc1c(F)ccc2cc(O)cc(-c3ncc4c(N5CCC[C@H](c6ccnn6C)CC5)nc(OC[C@@]56CCCN5C[C@H](F)C6)nc4c3F)c12 [Example 634, 5-ethyl-6-fluoro-4-(8-fluoro-2-(((2R,7aS)-2-fluorotetrahydro-1H-pyrrolizin-7a(5H)-yl)methoxy)-4-((S)-4-(1-methyl-1H-pyrazol-5-yl)azepan-1-yl)pyrido[4,3-d]pyrimidin-7-yl)naphthalen-2-ol]",2240,839,262,2980,> 10000,> 10000,6210
"CCc1c(F)ccc2cc(O)cc(-c3ncc4c(N5CCCC6(CCNS(=O)(=O)N6)C5)nc(OC[C@@]56CCCN5C[C@H](F)C6)nc4c3F)c12 (stereo partly drawn) [Example 656, 8-(7-(8-ethyl-7-fluoro-3-hydroxynaphthalen-1-yl)-8-fluoro-2-(((2R,7aS)-2-fluorotetrahydro-1H-pyrrolizin-7a(5H)-yl)methoxy)pyrido[4,3-d]pyrimidin-4-yl)-2-thia-1,3,8-triazaspiro[5.5]undecane 2,2-dioxide]",5,10,6,943,3240,1900,2380
"O=S1(=O)CCC2(CCCN(c3nc(OC[C@@]45CCCN4C[C@H](F)C5)nc4c(F)c(-c5cc(O)cc6ccc(F)c(Cl)c56)ncc34)C2)N1 (stereo partly drawn) [Example 807, 7-(7-(8-chloro-7-fluoro-3-hydroxynaphthalen-1-yl)-8-fluoro-2-(((2R,7aS)-2-fluorotetrahydro-1H-pyrrolizin-7a(5H)-yl)methoxy)pyrido[4,3-d]pyrimidin-4-yl)-2-thia-1,7-diazaspiro[4.5]decane 2,2-dioxide]",< 2,< 2,3,3,125,32,14
"CCc1c(F)ccc2cc(O)cc(-c3ncc4c(NCc5cc(C(=O)N(C)C)nn5C5COC5)nc(OC[C@@]56CCCN5C[C@H](F)C6)nc4c3F)c12 [Example 810, 5-(((7-(8-ethyl-7-fluoro-3-hydroxynaphthalen-1-yl)-8-fluoro-2-(((2R,7aS)-2-fluorotetrahydro-1H-pyrrolizin-7a(5H)-yl)methoxy)pyrido[4,3-d]pyrimidin-4-yl)amino)methyl)-N,N-dimethyl-1-(oxetan-3-yl)-1H-pyrazole-3-carboxamide]",13,4,4,110,> 10000,> 10000,4980
"CCc1c(F)ccc2cc(O)cc(-c3ncc4c(N5CCC[C@@](C)(O)C5)nc(OC[C@@]56CCCN5C[C@H](F)CC6)nc4c3F)c12 [Example 815, (R)-1-(7-(8-ethyl-7-fluoro-3-hydroxynaphthalen-1-yl)-8-fluoro-2-(((6R,8aS)-6-fluorohexahydroindolizin-8a (1H)-yl)methoxy)pyrido[4,3-d]pyrimidin-4-yl)-3-methylpiperidin-3-ol]",2,4,< 2,22,2290,32,28
"Oc1cc(-c2ncc3c(N4C[C@@H]5C[C@H](C4)[C@H](O)C5)nc(OC[C@@]45CCCN4C[C@H](F)C5)nc3c2F)c2cc(C(F)(F)F)ccc2c1 [Example 817, (1R,5R,6R)-3-(8-fluoro-2-(((2R,7aS)-2-fluorotetrahydro-1H-pyrrolizin-7a(5H)-yl)methoxy)-7-(3-hydroxy-7-(trifluoromethyl)naphthalen-1-yl)pyrido[4,3-d]pyrimidin-4-yl)-3-azabicyclo[3.2.1]octan-6-ol]",5,2,< 2,50,5110,188,43

# Continued, values first:
IC50 (KRas^G12D) [nM],IC50 (KRas^G12R) [nM],IC50 (KRas^G12V) [nM],IC50 [1] [nM],IC50 [2] [nM],IC50 [3] [nM],IC50 [4] [nM],Structure (SMILES)
1220,2250,3790,> 10000,> 10000,> 10000,> 10000,"CCc1c(F)ccc2cc(O)cc(-c3ncc4c(NS(=O)(=O)C[C@H]5CNCCO5)nc(OC[C@@]56CCCN5C[C@H](F)C6)nc4c3F)c12 [Example 637, N-(7-(8-ethyl-7-fluoro-3-hydroxynaphthalen-1-yl)-8-fluoro-2-(((2R,7aS)-2-fluorotetrahydro-1H-pyrrolizin-7a(5H)-yl)methoxy)pyrido[4,3-d]pyrimidin-4-yl)-1-((R)-morpholin-2-yl)methanesulfonamide]"
83,17,16,208,> 10000,5130,889,"CCc1c(F)ccc2cc(O)cc(-c3ncc4c(NCc5cnn(C(=O)N(C)C)c5N)nc(OC[C@@]56CCCN5C[C@H](F)C6)nc4c3F)c12 [Example 640, 5-amino-4-(((7-(8-ethyl-7-fluoro-3-hydroxynaphthalen-1-yl)-8-fluoro-2-(((2R,7aS)-2-fluorohexahydro-1H-pyrrolizin-7a-yl)methoxy)pyrido[4,3-d]pyrimidin-4-yl)amino)methyl)-N,N-dimethyl-1H-pyrazole-1-carboxamide]"
864,195,235,2870,> 10000,> 10000,> 10000,"CCc1c(F)ccc2cc(O)cc(-c3ncc4c(N5CCCC6(C[C@H](O)[C@H](O)CO6)C5)nc(OC[C@@]56CCCN5C[C@H](F)C6)nc4c3F)c12 (stereo partly drawn) [Example 642, (3R,4S)-8-(7-(8-ethyl-7-fluoro-3-hydroxynaphthalen-1-yl)-8-fluoro-2-(((2R,7aS)-2-fluorohexahydro-1H-pyrrolizin-7a-yl)methoxy)pyrido[4,3-d]pyrimidin-4-yl)-1-oxa-8-azaspiro[5.5]undecane-3,4-diol]"
30,15,10,546,> 10000,1460,1790,"CCc1c(F)ccc2cc(O)cc(-c3ncc4c(N[C@H](C)c5cc(C(=O)N(C)C)nn5C)nc(OC[C@@]56CCCN5C[C@H](F)C6)nc4c3F)c12 [Example 651, 5-((R)-1-((7-(8-ethyl-7-fluoro-3-hydroxynaphthalen-1-yl)-8-fluoro-2-(((2R,7aS)-2-fluorohexahydro-1H-pyrrolizin-7a-yl)methoxy)pyrido[4,3-d]pyrimidin-4-yl)amino)ethyl)-N,N,1-trimethyl-1H-pyrazole-3-carboxamide]"
< 2,2,< 2,> 10000,> 10000,2730,5730,"CN(C)C(=O)c1cc2n(n1)CCCN(c1nc(OCC34CCCN3CCC4)nc3c(F)c(-c4cc(O)cc(Cl)c4C4CC4)ncc13)C2 [Example 744, 5-(7-(3-chloro-2-cyclopropyl-5-hydroxyphenyl)-8-fluoro-2-((hexahydro-1H-pyrrolizin-7a-yl)methoxy)pyrido[4,3-d]pyrimidin-4-yl)-N,N-dimethyl-5,6,7,8-tetrahydro-4H-pyrazolo[1,5-a][1,4]diazepine-2-carboxamide]"
< 2,< 2,< 2,653,> 10000,3070,1690,"Cc1cccc2cc3[nH]ncc3c(-c3ncc4c(N5CCCC6(CNS(=O)(=O)N6)C5)nc(OCC56CCCN5CCC6)nc4c3F)c12 (centres unmarked) [Example 808, 7-(8-fluoro-7-(5-methyl-1H-benzo[f]indazol-4-yl)-2-((tetrahydro-1H-pyrrolizin-7a(5H)-yl)methoxy)pyrido[4,3-d]pyrimidin-4-yl)-2-thia-1,3,7-triazaspiro[4.5]decane 2,2-dioxide]"
8,4,2,37,5670,149,68,"CCc1c(F)ccc2cc(O)c(F)c(-c3ncc4c(N5C[C@@H]6C[C@H](C5)[C@H](O)C6)nc(OC[C@@]56CCCN5C[C@H](F)C6)nc4c3F)c12 [Example 811, (1R,5R,6R)-3-(7-(8-ethyl-2,7-difluoro-3-hydroxynaphthalen-1-yl)-8-fluoro-2-(((2R,7aS)-2-fluorotetrahydro-1H-pyrrolizin-7a(5H)-yl)methoxy)pyrido[4,3-d]pyrimidin-4-yl)-3-azabicyclo[3.2.1]octan-6-ol]"
< 2,3,< 2,176,> 10000,485,402,"C#Cc1c(F)ccc2cc(O)cc(-c3ncc4c(N5CCC[C@@](C)(O)C5)nc(OC[C@]56CCCN5[C@H](CO)CC6)nc4c3F)c12 [Example 814, (R)-1-(7-(8-ethynyl-7-fluoro-3-hydroxynaphthalen-1-yl)-8-fluoro-2-(((3S,7aR)-3-(hydroxymethyl)tetrahydro-1H-pyrrolizin-7a(5H)-yl)methoxy)pyrido[4,3-d]pyrimidin-4-yl)-3-methylpiperidin-3-ol]"
